Active and inactive are the calls of the source.
Legend:
[1] = target: Heat shock protein HSP 90-alpha (Homo sapiens, UniProt P07900); format: functional, organism-based
[2] = target: Mitochondrial peptide methionine sulfoxide reductase (Bos taurus, UniProt P54149); experiment: Absorbance-based biochemical high throughput dose response assay for activators of Methionine sulfoxide reductase A (MsrA).; format: functional
[3] = target: T1, Caspase-6 (Homo sapiens, UniProt P55212); experiment: human caspase-6 inhibitors, dose response, biochemical, VEID-R110 fluorescence, cherry-pick (AID 720632)
T1 sequence (P55212 whole entry): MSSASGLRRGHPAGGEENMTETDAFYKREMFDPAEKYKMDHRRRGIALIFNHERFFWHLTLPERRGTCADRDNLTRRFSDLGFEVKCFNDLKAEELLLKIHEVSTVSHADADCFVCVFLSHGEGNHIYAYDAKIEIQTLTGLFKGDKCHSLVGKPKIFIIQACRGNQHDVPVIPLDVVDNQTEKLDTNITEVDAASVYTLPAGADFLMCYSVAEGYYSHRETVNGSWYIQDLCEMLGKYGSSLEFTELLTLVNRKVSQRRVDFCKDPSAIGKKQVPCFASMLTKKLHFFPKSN

[4] = target: T2, Caspase-7 (Homo sapiens, UniProt P55210); experiment: human caspase-7 inhibitors, dose response, selectivity assay for caspase-6 inhibitor project, biochemical, DEVD-R110 fluorescence, cherry-pick (AID 743295)
T2 sequence (P55210 whole entry): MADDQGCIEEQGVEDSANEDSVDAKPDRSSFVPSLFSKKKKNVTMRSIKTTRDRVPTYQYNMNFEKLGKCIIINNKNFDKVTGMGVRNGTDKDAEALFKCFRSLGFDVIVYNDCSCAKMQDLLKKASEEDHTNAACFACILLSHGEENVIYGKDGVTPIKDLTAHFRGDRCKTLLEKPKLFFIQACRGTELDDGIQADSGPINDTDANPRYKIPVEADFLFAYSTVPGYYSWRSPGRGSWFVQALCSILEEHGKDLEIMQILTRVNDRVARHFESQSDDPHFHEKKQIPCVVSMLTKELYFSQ

[5] = target: Caspase-8 (Homo sapiens, UniProt Q14790); experiment: caspase-8 inhibition counter-screen, dose response, selectivity assay for caspase-6 inhibitor project, biochemical, Z-IETD-R110 fluorescence, cherry-picked samples (AID 743294)
Caspase-8, sequence (Q14790 217-374 limits assumed): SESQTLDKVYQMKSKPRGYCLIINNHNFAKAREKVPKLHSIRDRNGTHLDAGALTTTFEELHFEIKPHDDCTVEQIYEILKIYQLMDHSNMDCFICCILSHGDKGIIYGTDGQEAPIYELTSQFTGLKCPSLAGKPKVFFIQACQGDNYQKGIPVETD
Caspase-8, sequence (Q14790 385-479 limits assumed): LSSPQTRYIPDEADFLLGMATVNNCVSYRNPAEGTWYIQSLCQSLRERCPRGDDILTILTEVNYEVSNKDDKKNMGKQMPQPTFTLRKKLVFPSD

[6] = A Cell Based Secondary Assay To Explore Cytotoxicity of Compounds that Sensitize Mycobacterium Tuberculosis to Beta-Lactam Antibiotics.; format: functional
[7] = system: CHO-K1; experiment: (§1) Counterscreen for antagonists of the orexin 1 receptor (OX1R; HCRTR1): Homogeneous time resolved fluorescence (HTRF)-based cell-based dose response assay to identify antagonists of the parental CHO-K1 cell line. [Related pubchem assays (depositor defined):AID434989, AID435008, AID463079, AID485270, AID492963, AID492964, AID492965, AID493232, AID504699, AID504701]; format: functional; settings: Cricetulus griseus
[8] = as §1, with “Fluorescence-based” for “Homogeneous time resolved fluorescence (HTRF)-based”, “cell-based high throughput” for “cell-based”, “CHO” for “CHO-K1”; format: functional
[9] = target: T3, Orexin/Hypocretin receptor type 1 (Homo sapiens, UniProt O43613); experiment: Homogeneous Time Resolved Fluorescence (HTRF)-based cell-based high throughput dose response assay for antagonists of the orexin 1 receptor (OX1R; HCRTR1). [Related pubchem assays (depositor defined):AID434989, AID435008, AID463079, AID485270, AID492963, AID492964, AID492965, AID493232, AID504717, AID504718]; format: functional
T3 sequence (O43613 whole entry): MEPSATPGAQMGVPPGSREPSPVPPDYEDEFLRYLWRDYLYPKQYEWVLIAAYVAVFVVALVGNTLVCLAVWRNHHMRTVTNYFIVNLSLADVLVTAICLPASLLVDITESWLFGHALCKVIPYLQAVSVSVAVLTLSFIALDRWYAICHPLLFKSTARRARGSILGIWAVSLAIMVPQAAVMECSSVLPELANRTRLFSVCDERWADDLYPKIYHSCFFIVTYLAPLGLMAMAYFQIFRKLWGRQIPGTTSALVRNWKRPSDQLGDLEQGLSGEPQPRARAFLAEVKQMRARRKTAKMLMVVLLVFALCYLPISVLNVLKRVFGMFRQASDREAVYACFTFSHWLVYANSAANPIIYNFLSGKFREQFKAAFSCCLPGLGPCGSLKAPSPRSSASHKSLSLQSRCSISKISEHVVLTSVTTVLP

[10] = target: T3, Orexin/Hypocretin receptor type 1; experiment: Fluorescence-based cell-based high throughput dose response assay for antagonists of the orexin 1 receptor (OX1R; HCRTR1). [Related pubchem assays (depositor defined):AID434989, AID435008, AID463079, AID485270, AID492963, AID492964, AID492965, AID493232, AID504717, AID504718]; format: functional
[11] = target: T4, Orexin receptor type 2 (Homo sapiens, UniProt O43614); experiment: Counterscreen assay for antagonists of the orexin 1 receptor (OX1R; HCRTR1): Fluorescence-based cell-based dose response assay for antagonists of the orexin 2 receptor (OX2R; HCRTR2), run by assay provider.; format: functional
T4 sequence (O43614 whole entry): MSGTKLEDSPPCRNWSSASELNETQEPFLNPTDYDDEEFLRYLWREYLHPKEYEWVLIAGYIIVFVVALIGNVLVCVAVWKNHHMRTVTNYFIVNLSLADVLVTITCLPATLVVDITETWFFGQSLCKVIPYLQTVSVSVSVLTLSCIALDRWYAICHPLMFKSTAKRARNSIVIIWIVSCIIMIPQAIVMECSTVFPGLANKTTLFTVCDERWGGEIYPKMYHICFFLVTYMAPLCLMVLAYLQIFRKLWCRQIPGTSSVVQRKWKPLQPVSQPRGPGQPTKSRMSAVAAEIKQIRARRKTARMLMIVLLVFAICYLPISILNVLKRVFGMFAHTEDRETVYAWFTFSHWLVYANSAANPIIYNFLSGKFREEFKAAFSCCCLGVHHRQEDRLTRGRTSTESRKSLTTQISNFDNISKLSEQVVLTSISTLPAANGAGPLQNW

[12] = target: T4, Orexin receptor type 2; experiment: Counterscreen assay for antagonists of the orexin 1 receptor (OX1R; HCRTR1): Homogeneous Time Resolved Fluorescence (HTRF)-based cell-based dose response assay for antagonists of the orexin 2 receptor (OX2R; HCRTR2), run by assay provider.; format: functional
[13] = target: T5, High affinity choline transporter 1 (Homo sapiens, UniProt Q9GZV3); experiment: CHT inhibitors, dose response, cell-based, 5-point CRC, membrane potential dye (AID 504840); format: functional
T5 sequence (Q9GZV3 whole entry): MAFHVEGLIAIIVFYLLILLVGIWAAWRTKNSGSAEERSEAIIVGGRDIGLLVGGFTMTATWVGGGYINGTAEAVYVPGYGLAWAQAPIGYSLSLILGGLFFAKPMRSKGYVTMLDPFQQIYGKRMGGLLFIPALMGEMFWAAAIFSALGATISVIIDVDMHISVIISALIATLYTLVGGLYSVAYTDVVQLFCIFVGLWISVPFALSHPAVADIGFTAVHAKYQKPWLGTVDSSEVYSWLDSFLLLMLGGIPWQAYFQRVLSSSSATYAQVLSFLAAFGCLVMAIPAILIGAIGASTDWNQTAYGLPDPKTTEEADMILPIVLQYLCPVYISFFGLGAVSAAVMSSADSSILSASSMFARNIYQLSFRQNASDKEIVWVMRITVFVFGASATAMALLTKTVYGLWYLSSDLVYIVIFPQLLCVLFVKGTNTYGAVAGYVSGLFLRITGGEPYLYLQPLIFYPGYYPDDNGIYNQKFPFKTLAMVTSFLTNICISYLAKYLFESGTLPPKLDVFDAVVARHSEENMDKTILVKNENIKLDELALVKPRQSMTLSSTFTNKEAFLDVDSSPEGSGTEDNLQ

[14] = target: T5, High affinity choline transporter 1; experiment: CHT inhibitors, dose response, cell-based, 10-point CRC, membrane potential dye (AID 588401); format: functional;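 further: membrane potential dye fluorescence of choline-evoked depolarization via CHT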
[15] = target: T6, Corticotropin-releasing factor receptor 2/Corticotropin-releasing factor-binding protein (Homo sapiens, UniProt P24387+Q13324); experiment: Dose Response confirmation of uHTS hits for small molecule antagonists of the CRF-binding protein and CRF-R2 receptor complex.; format: functional; settings: read-out: IC50_Mean
T6 sequence (Q13324 whole entry): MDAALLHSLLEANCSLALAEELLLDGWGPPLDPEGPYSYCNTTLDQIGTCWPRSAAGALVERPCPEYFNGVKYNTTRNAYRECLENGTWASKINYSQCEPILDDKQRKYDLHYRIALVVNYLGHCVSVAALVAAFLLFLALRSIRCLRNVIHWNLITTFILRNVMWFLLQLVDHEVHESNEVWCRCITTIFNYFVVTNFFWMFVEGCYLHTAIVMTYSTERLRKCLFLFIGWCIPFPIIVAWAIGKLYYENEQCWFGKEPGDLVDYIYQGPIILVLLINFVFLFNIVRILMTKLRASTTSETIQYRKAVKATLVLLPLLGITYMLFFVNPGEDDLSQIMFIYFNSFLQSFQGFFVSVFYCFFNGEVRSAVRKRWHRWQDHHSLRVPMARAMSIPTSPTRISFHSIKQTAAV
T6 sequence (P24387 whole entry): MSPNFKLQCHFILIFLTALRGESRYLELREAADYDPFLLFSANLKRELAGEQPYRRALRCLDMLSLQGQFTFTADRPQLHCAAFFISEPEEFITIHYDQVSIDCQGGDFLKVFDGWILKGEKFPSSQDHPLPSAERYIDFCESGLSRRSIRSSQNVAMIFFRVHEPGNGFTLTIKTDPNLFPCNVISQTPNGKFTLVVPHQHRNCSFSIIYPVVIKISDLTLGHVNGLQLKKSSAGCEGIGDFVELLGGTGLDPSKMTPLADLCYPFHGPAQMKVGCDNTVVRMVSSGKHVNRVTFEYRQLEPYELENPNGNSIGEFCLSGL

[16] = target: T6, Corticotropin-releasing factor receptor 2/Corticotropin-releasing factor-binding protein; experiment: activators of CRF receptor 2 with binding protein – uHTS hits, confirmation (AID 602473); format: functional; settings: read-out: EC50_Mean
[17] = CRF-BP/CRF-R2 complex antagonists, dose response, cell-based, uHTS hits, 384-well (AID 651639); format: functional, Homo sapiens; settings: read-out: IC50_Mean
[18] = target: Melanocortin receptor 4 (Homo sapiens, UniProt P32245); format: functional, cell-based;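 further: Cell-based assay with luminescence read-out, confirmatory dose-response testing for agonist activity of biased ligands at MC4R; human U2OS cells with tagged receptor and beta-arrestin; potency of agonists that increase receptor coupling to beta-arrestin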
Melanocortin receptor 4, sequence (P32245 whole entry): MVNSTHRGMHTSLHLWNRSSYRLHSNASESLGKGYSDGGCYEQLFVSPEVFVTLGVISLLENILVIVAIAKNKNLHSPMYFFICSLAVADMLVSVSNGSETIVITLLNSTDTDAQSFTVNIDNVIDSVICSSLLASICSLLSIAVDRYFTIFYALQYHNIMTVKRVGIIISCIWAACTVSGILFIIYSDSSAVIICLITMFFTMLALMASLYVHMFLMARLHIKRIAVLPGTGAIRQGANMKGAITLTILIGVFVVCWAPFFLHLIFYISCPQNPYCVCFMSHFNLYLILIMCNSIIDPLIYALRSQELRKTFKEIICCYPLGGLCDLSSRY

[19] = target: Melanin-concentrating hormone receptor 1 (Homo sapiens, UniProt Q99705); experiment: Late-stage fluorescence-based counterscreen for antagonists of the G-protein coupled receptor 7 (GPR7): cell-based dose response assay to identify antagonists of the melanin-concentrating hormone receptor 1 (MCHR1) Set 6.; format: functional
Melanin-concentrating hormone receptor 1, sequence (Q99705 whole entry): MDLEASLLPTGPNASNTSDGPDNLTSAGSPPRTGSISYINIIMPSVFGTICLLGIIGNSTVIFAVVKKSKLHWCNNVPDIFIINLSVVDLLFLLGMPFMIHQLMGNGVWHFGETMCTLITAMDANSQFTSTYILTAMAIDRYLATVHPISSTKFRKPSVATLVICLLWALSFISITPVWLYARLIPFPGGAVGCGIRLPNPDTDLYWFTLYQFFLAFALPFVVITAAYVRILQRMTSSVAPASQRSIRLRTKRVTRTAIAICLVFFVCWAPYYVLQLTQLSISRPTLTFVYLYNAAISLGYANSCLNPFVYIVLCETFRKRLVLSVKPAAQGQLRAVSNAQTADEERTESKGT

[20] = target: Neuropeptides B/W receptor type 1 (Homo sapiens, UniProt P48145); experiment: GPR7 antagonist potency, late-stage follow-up, cell-based, fluorescence, dose response, set 6 (AID 588583); format: functional
Neuropeptides B/W receptor type 1, sequence (P48145 whole entry): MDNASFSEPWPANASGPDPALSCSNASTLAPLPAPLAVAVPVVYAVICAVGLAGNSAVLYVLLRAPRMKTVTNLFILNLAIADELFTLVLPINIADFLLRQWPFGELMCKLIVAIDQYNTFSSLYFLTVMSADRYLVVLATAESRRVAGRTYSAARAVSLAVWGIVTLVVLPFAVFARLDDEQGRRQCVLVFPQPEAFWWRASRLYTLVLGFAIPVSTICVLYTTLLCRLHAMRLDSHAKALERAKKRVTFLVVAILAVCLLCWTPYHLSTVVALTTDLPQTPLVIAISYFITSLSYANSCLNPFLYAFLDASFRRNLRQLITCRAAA

Mitochondrial peptide methionine sulfoxide reductase, sequence (P54149 whole entry): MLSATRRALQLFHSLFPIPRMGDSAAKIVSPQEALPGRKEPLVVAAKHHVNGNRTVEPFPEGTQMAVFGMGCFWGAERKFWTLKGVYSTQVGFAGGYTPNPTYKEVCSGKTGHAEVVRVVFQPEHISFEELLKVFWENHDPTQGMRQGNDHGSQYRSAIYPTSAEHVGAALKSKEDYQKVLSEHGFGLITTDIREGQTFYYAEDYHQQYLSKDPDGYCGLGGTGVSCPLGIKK

In the case of `CC(C)(C)c1ccc(NC(=O)COC(=O)c2ccc([N+](=O)[O-])s2)cc1`, the AC50 [1] is reported as 2.85 µM (active), the EC50 [2] is reported as 54.7 µM (inactive) and the AC50 [3] is reported as 3.59 µM (active). The AC50 [4] was 21.7 µM (active) and the AC50 [5] was 37.4 µM (active).
For `O=C(Nc1cccc(S(=O)(=O)NCc2ccco2)c1)c1cc(-c2ccc(F)cc2)nc2ccccc12`, the CC50 [6] was 2.38 µM (active), the IC50 [7] was > 66.2 µM (inactive) and the IC50 [8] was > 49.8 µM (inactive). The IC50 [9] was 6.13 µM (active), the IC50 [10] was 17.2 µM (inactive) and the IC50 [11] was 9.9 µM (active). The IC50 [12] was > 50 µM (inactive).
In the case of `CC(c1ccco1)N(C(=O)c1ccccc1NS(=O)(=O)c1ccc(Cl)c([N+](=O)[O-])c1)c1ccccn1` (stereo not given), the IC50 [13] is reported as 0.661 µM (inconclusive), the IC50 [14] is reported as 4.01 µM (active) and the IC50 [15] is reported as 20.3 µM (active). The EC50 [16] was > 53 µM (inactive) and the IC50 [17] was 18 µM (active).
With `NC(Cc1ccc(Cl)cc1)c1csc(Nc2ccc(-c3ccccc3)nn2)n1` (stereo not given) the EC50 [18] was > 89.2 µM (inactive).
In the case of `O=c1c(-c2ccccc2F)c(Br)cnn1Cc1cccc2ccccc12`, the IC50 [19] is reported as 3.58 µM (active) and the IC50 [20] is reported as 3.58 µM (active).

— ChEMBL document CHEMBL1201862, “PubChem BioAssay data set” (2004)
